The record followed here is patent US7485455B2, “Nucleic acid encoding sodium channel subunit” (Wisconsin Alumni Research Foundation, priority 2002, dated 2009).

Molecules are shown by their SMILES.

The test system of the assay is untransfected HEK cells (endogenous currents). Conditions: incubation with mexiletine 100 μM for 24 hours, n=10, not significantly increased.

The molecule `Cc1cccc(C)c1OCC(C)N` (stereo not shown) [mexiletine] displayed an endogenous current density of 1.1±0.4 pA/pF.
